One assay deals with T1, BRD4-BD12 (Homo sapiens, UniProt O60885).
T1 construct: dual bromodomains (BRD4-BD12 (1-477), BRD4-BD12 (1-472)); six-His tag (N); made in house; host or cells: E. coli BL21-CodonPlus (DE3)
Description: Alphascreen binding assay, BRD4(1 2) H4. To be noted: BRD4 dual bromodomains with acetylated Histone 4 peptide, read-out: Biochemical activity (IC50 μM) BRD4(1 2) H4. The procedure: Binding of compounds of formula (I) with bromodomain 2, 3 4 was assessed using Alphascreen binding assay. The inhibition of the interaction between bromodomain and its acetylated target protein (Filippakopoulos P et al. 2012) was measured quantitatively using recombinant BRD proteins, an acetylated Histone 4 peptide and AlphaScreen™ technology. In absence of inhibition the BRD protein bound to AlphaScreen™ nickel chelate acceptor beads can interact with the acetylated Histone 4 peptide which is immobilized by the AlphaScreen™ Streptavidin coated beads. This interaction brings donor and acceptor beads in proximity. The close proximity allows the singlet oxygen produced by laser excitation of the donor beads to reach the acceptor beads and generate a luminescence signal. BRD inhibitors result in a decrease in the proximity signal through an inhibition of the BRD acetylated peptide interaction.
Recombinant human bromodomains containing the N-terminal bromodomain (BRD2-BD1 (71-194), BRD3-BD1 (24-144) and BRD4-BD1 (44-164)) or dual bromodomains (BRD4-BD12 (1-477), BRD4-BD12 (1-472)) were prepared and purified as described in protein expression and purification session. The peptide is human Histone H41-21K5AcK8AcK12AcK16Ac-Biotin (Anaspec Calif., USA).
Protocol for BRD2, BRD3 and BRD4 assay: All components are prepared in buffer composed of 50 mM HEPES pH 7.5, 100 mM NaCl, 0.01% BSA, 0.01% Triton X-100, 2 mM DTT. 7 μL of Bromodomain protein and 7 μL of peptide are added to wells containing 1 μL of various concentrations of test compounds of formula (I) or DMSO vehicle in an Alphaplate (PerkinElmer Ga., USA) and incubated for 1 hour at room temperature. 4 μL donor and acceptor bead mixture is then added with final concentrations of 7.5 μg/ml. 30 minutes after bead addition, Alpha signal is read on the Envision spectrometer (λEx 680 nm, λEm 520-620 nm). Final concentrations of bromodomain proteins and peptide are as shown below.
All data was normalized to the mean of 16 high and 16 low control wells on each plate. A four parameter curve fit of the following formula was then applied: Y=a+(b−a)/(1+(x/c)^d) Where ‘a’ is the minimum, ‘b’ is the maximum, ‘c’ is the pIC50 and ‘d’ is the Hill slope. Protein Expression and Purification
Recombinant human bromodomains containing the N-terminal bromodomain (BRD2-BD1 (71-194), BRD3-BD1 (24-144) and BRD4-BD1 (44-164)) or dual bromodomains (BRD4-BD12 (1-477), BRD4-BD12 (1-472)) were expressed in E. coli cells (in a modified pET vector) with an N-terminal six-His tag and purified using a combination of both IMAC (Ni-affinity) and size exclusion chromatography steps.
Recombinant BRD proteins were expressed using the E. coli strain BL21-CodonPlus (DE3) (Agilent Technologies CA, USA). Cells were grown in Terrific Broth (TB) media to an OD600 of 1.2 at 37° C. at which temperature was reduced to 25° C., protein was induced with 1.0 mM IPTG for 12-18 hours and harvested by centrifugation at 8000×g for 20 minutes. Cells were re-suspended in 0.1M KPO4 pH 8.0, 250 mM NaCl, 10% Glycerol, 0.75% NP-40, 25 mM Imidazole, 5 mM BME with 0.2 mg/ml Lysosyme, 2.0 mM PMSF, 25 μg/ml DNAse I, incubated on ice for 30 minutes and lyzed with a cell disruptor (MicroFluidics MA, USA). The lysate was clarified by centrifugation at 20,000×g for 2 hours. The protein was captured with Ni-NTA resin (Life Technologies, USA). Contaminating proteins were washed off with 25 mM Tris-HCl pH 8.3, 250 mM NaCl, 12% Glycerol and 50 mM Imidazole. Following 3× wash steps, protein was eluted step wise using a 50 mM HEPES pH 7.5, 500 mM NaCl and 400 mM Imidazole. The protein was further purified using Gel Filtration column 26/600 Superdex 200 (GE Biosciences N.J., USA) in 50 mM HEPES pH 7.5, 250 mM NaCl. The protein was aliquoted and flash-frozen in liquid Nitrogen.
On the technique in general: Bead proximity is the source of the signal in Alpha formats.

Assay [1] concerns cancer cell lines / MV-4-11 Myc reporter cell line. As to the kind of experiment: Bromodomain cell assays of Example 8 (at least one of them). The assay is classed as cell-based. To be noted: Homo sapiens, MV4-11; at least one of the bromodomain cell assays described in Example 8. The method in brief: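 Antiproliferation: 3000 cells/well, 8-point 1:3 titration from 10 µM final, 0.2% DMSO, 72 h, CellTiter Glo luminescence. Myc reporter: MV-4-11 with E-box firefly luciferase, 25,000 cells, same titration, 24 h; One-Glo luminescence with CellTiter-Fluo viability; 10 µM JQ1 as low control. pIC50 from four-parameter fit.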

A further assay deals with MV-4-11. As to the kind of experiment: Oncology cell growth assay, MV-4-11 3 d growth. To be noted: Homo sapiens, MV4-11; MV-4-11 cells, 72 hours, CellTiter Glo; read-out: Cell activity (IC50 μM) MV-4-11 3 d-Growtb. It counts as cell-based. The method, then: In this study, we test compounds in different cancer cell lines. MV-4-11 and MOLM-13 are AML cell lines harboring a MLL-AF4 and MLL-AF9 translocation, respectively. MM.1S is a multiple myeloma cell line. SK—N-AS, IMR-32 and SK-N-BE(2) are neuroblastoma cell lines. IMR-32 and SK-N-BE(2) cell lines harbor MYCN amplifications.
MV-4-11, MM.1S, IMR-32, SK-N-AS and SK-N-BE(2) were obtained from ATCC (IL, USA) and MOLM-13 were purchased from DSMZ (Braunschweig, German). Cells are cultured as recommended by their sources. For growth inhibition studies 3000 cells are seeded in wells of a 96-well plate in 75 μL of culture media. After several hours, growth media containing compounds of formula (I) are added to the wells. Compound at a maximal concentration of 5 mM was serially diluted 1:3 for a total of 8 point titration with DMSO as a control. A 1 μL aliquot of each dilution point is added to 249 μL growth media and 75 μL is added to each well containing cells, providing 10 μM compound at the maximum concentration point. The final concentration of DMSO in all wells is 0.2%. Cells are incubated for 72 hours, and 25 μL of CellTiter Glo Reagent (Promega Ga., USA) is added to each well. Plates are shaken for approximately 10 minutes and chemiluminescent signal is read on Tecan microplate reader. The measured luminescence correlates directly with cell number.
All data is normalized to the mean of eight DMSO high control wells on each plate. A four parameter curve fit of the following formula was then applied: Y=a+(b−a)/(1+(x/c)^d) Where ‘a’ is the minimum, ‘b’ is the maximum, ‘c’ is the pIC50 and ‘d’ is the Hill slope. […] Myc Reporter Assay
Background: In ATP-based viability assays light output follows the ATP content of the culture.

As for `Cc1noc(C)c1-c1cnc2c(-c3ccc(C(=O)O)cc3)cn(C(c3ccccc3)c3ccccn3)c2n1` (stereo not drawn) [Compound P-2046, 4-[3-(3,5-dimethylisoxazol-4-yl)-5-[phenyl(2-pyridyl)methyl]pyrrolo[2,3-b]pyrazin-7-yl]benzoic acid], the IC50 was ≤ 1 µM on BRD4-BD12, < 10 µM in assay [1] and ≤ 1 µM with MV-4-11.

Consider `COC(=O)Cc1ccc(-c2cn(C(c3ccccc3)c3ccccn3)c3nc(-c4c(C)noc4C)cnc23)cc1` (stereo not drawn) [Compound P-2047, methyl 2-[4-[3-(3,5-dimethylisoxazol-4-yl)-5-[phenyl(2-pyridyl)methyl]pyrrolo[2,3-b]pyrazin-7-yl]phenyl]acetate], for which the IC50 was ≤ 1 µM at BRD4-BD12, < 10 µM in assay [1] and ≤ 1 µM in the assay on MV-4-11.

As for `Cc1noc(C)c1-c1cnc2c(-c3ccc(CC(=O)O)cc3)cn(C(c3ccccc3)c3ccccn3)c2n1` (stereo not drawn) [Compound P-2048, 2-[4-[3-(3,5-dimethylisoxazol-4-yl)-5-[phenyl(2-pyridyl)methyl]pyrrolo[2,3-b]pyrazin-7-yl]phenyl]acetic acid], the IC50 on BRD4-BD12 was ≤ 1 µM; in assay [1] it was < 10 µM; with MV-4-11, ≤ 1 µM.

`COC(=O)c1ccc(-c2cn([C@@H](C)c3ccccn3)c3nc(-c4c(C)noc4C)cnc23)cc1` [Compound P-2049, methyl 4-[3-(3,5-dimethylisoxazol-4-yl)-5-[(1S)-1-(2-pyridyl)ethyl]pyrrolo[2,3-b]pyrazin-7-yl]benzoate]: the IC50 was ≤ 1 µM at BRD4-BD12, < 10 µM in assay [1] and ≤ 1 µM in the assay on MV-4-11.

For the compound `Cc1noc(C)c1-c1cnc2c(-c3ccc(C(=O)O)cc3)cn([C@@H](C)c3ccccn3)c2n1` [Compound P-2050, 4-[3-(3,5-dimethylisoxazol-4-yl)-5-[(1S)-1-(2-pyridyl)ethyl]pyrrolo[2,3-b]pyrazin-7-yl]benzoic acid], the IC50 at BRD4-BD12 was ≤ 1 µM; in assay [1], < 10 µM; in the assay with MV-4-11, ≤ 1 µM.

Take `COC(=O)Cc1ccc(-c2cn([C@@H](C)c3ccccn3)c3nc(-c4c(C)noc4C)cnc23)cc1` [Compound P-2051, methyl 2-[4-[3-(3,5-dimethylisoxazol-4-yl)-5-[(1S)-1-(2-pyridyl)ethyl]pyrrolo[2,3-b]pyrazin-7-yl]phenyl]acetate]: the values for the IC50 (on BRD4-BD12; in assay [1]; in the assay on MV-4-11) were ≤ 1 µM, < 10 µM and ≤ 1 µM, respectively.

`Cc1noc(C)c1-c1cnc2c(-c3ccc(CC(=O)O)cc3)cn([C@@H](C)c3ccccn3)c2n1` [Compound P-2052, 2-[4-[3-(3,5-dimethylisoxazol-4-yl)-5-[(1S)-1-(2-pyridyl)ethyl]pyrrolo[2,3-b]pyrazin-7-yl]phenyl]acetic acid]: the IC50 at BRD4-BD12 is ≤ 1 µM; in assay [1], < 10 µM; in the assay with MV-4-11, ≤ 1 µM.

For the compound `COC(=O)C1(c2ccc(-c3cn([C@@H](C)c4ccccn4)c4nc(-c5c(C)noc5C)cnc34)cc2)CC1` [Compound P-2053, methyl 1-[4-[3-(3,5-dimethylisoxazol-4-yl)-5-[(1S)-1-(2-pyridyl)ethyl]pyrrolo[2,3-b]pyrazin-7-yl]phenyl]cyclopropanecarboxylate], the IC50 is ≤ 1 µM on BRD4-BD12, < 10 µM in assay [1] and ≤ 1 µM with MV-4-11.

On to `Cc1noc(C)c1-c1cnc2c(-c3ccc(C4(C(=O)O)CC4)cc3)cn([C@@H](C)c3ccccn3)c2n1` [Compound P-2054, 1-[4-[3-(3,5-dimethylisoxazol-4-yl)-5-[(1S)-1-(2-pyridyl)ethyl]pyrrolo[2,3-b]pyrazin-7-yl]phenyl]cyclopropanecarboxylic acid], for which the IC50 on BRD4-BD12 was ≤ 1 µM; in assay [1] it was < 10 µM; in the assay with MV-4-11 it was ≤ 1 µM.

As to `Cc1noc(C)c1-c1cnc2c(-c3ccc(C#N)nc3)cn([C@@H](C)c3ccccn3)c2n1` [Compound P-2055, 5-[3-(3,5-dimethylisoxazol-4-yl)-5-[(1S)-1-(2-pyridyl)ethyl]pyrrolo[2,3-b]pyrazin-7-yl]pyridine-2-carbonitrile], the IC50 on BRD4-BD12 was ≤ 1 µM; in assay [1], < 10 µM; with MV-4-11, ≤ 1 µM.

Regarding `Cc1noc(C)c1-c1cnc2c(I)cn([C@@H](C)c3ccccn3)c2n1` [Compound P-2056, 4-[7-iodo-5-[(1S)-1-(2-pyridyl)ethyl]pyrrolo[2,3-b]pyrazin-3-yl]-3,5-dimethyl-isoxazole], the half-inhibitory concentration (IC50) on BRD4-BD12 is ≤ 1 µM; in assay [1], < 10 µM; in the assay with MV-4-11, ≤ 1 µM.

For `Cc1noc(C)c1-c1cnc2[nH]cc(CC3CCC(F)(F)CC3)c2n1` [Compound P-2077, 4-[7-[(4,4-difluorocyclohexyl)methyl]-5H-pyrrolo[2,3-b]pyrazin-2-yl]-3,5-dimethyl-isoxazole], the IC50 was 1 to 10 µM at BRD4-BD12, < 10 µM in assay [1] and 1 to 10 µM in the assay on MV-4-11.

For the compound `Cc1noc(C)c1-c1cnc2c(n1)c(CC1CCC(F)(F)CC1)cn2-c1ccc(C(=O)O)cn1` [Compound P-2078, 6-[7-[(4,4-difluorocyclohexyl)methyl]-2-(3,5-dimethylisoxazol-4-yl)pyrrolo[2,3-b]pyrazin-5-yl]pyridine-3-carboxylic acid], the IC50 at BRD4-BD12 was ≤ 1 µM; in assay [1], < 10 µM; in the assay with MV-4-11, 1 to 10 µM.

In general, IC50 refers to the concentration that gives 50% inhibition.

The values are drawn from patent US9856259B2, “Heterocyclic compounds and uses thereof” (Plexxikon Inc., priority 2014, dated 2018).
